By melting point is commonly meant the temperature, or range, at which the solid turns liquid.

The structures appear in SMILES notation.

For `COc1cc2c(nc1OC)c(-c1cc3c(Cl)c(F)cnc3[nH]1)cn2CCCN1CCC(O)CC1` [Example 12, 1-{3-[3-(4-Chloro-5-fluoro-1H-pyrrolo[2,3-b]pyridin-2-yl)-5,6-dimethoxypyrrolo[3,2-b]pyridin-1-yl]propyl}piperidin-4-ol], the melting point amounted to 188 °C.

Molecule `COc1cc2c(nc1OC)c(-c1cc3c(Cl)c(F)cnc3[nH]1)cn2CCCN1CCN(C)CC1` [Example 16, 3-(4-Chloro-5-fluoro-1H-pyrrolo[2,3-b]pyridin-2-yl)-5,6-dimethoxy-1-[3-(4-methylpiperazin-1-yl)propyl]-1H-pyrrolo[3,2-b]pyridine] showed a melting point of 155 °C.

The molecule `COc1cc2c(nc1OC)c(-c1cc3c(Cl)c(F)cnc3[nH]1)cn2CCCN1CCCCC1` [Example 11, 3-[4-Chloro-5-fluoro-1H-pyrrolo[2,3-b]pyridin-2-yl]-5,6-dimethoxy-1-(3-piperidin-1-ylpropyl)-1H-pyrrolo[3,2-b]pyridine] registered a melting point of 110 to 114 °C.

Molecule `COc1cc2[nH]cc(-c3cc4c(Cl)c(F)cnc4[nH]3)c2nc1OC` [Example 9, 3-[4-Chloro-5-fluoro-1H-pyrrolo[2,3-b]pyridin-2-yl]-5,6-dimethoxy-1H-pyrrolo[3,2-b]pyridine] came in with a melting point of 283 to 284 °C.

As to `COc1cc2c(nc1OC)c(-c1cc3c(Cl)c(F)cnc3[nH]1)cn2CCCN1CCC(CN)CC1` [Example 15, C-(1-{3-[3-(4-Chloro-5-fluoro-1H-pyrrolo[2,3-b]pyridin-2-yl)-5,6-dimethoxypyrrolo[3,2-b]pyridin-1-yl]propyl}piperidin-4-yl)methylamine], the melting point was 135 °C.

For the molecule `COc1cc2c(nc1OC)c(-c1cc3c(Cl)c(F)cnc3[nH]1)cn2CCCN1CCOCC1` [Example 14, 3-(4-Chloro-5-fluoro-1H-pyrrolo[2,3-b]pyridin-2-yl)-5,6-dimethoxy-1-(3-morpholin-4-ylpropyl)-1H-pyrrolo[3,2-b]pyridine], the melting point was 189 °C.

In turn, `COc1cc2c(nc1OC)c(-c1cc3cc(F)cnc3[nH]1)cn2CCN1CCOCC1` [Example 7, 3-(5-fluoro-1H-pyrrolo[2,3-b]pyridin-2-yl)-5,6-dimethoxy-1-(2-morpholin-4-ylethyl)-1H-pyrrolo[3,2-b]pyridine] showed a melting point of 218 °C.

Turning to `COc1cc2c(nc1OC)c(-c1cc3c(Cl)c(F)cnc3[nH]1)cn2CCCN1CCCN(C)CC1` [Example 13, 3-(4-Chloro-5-fluoro-1H-pyrrolo[2,3-b]pyridin-2-yl)-5,6-dimethoxy-1-[3-(4-methylperhydro-1,4-diazepin-1-yl)propyl]-1H-pyrrolo[3,2-b]pyridine], the melting point was 140 to 145 °C.

The molecule `COc1cc2c(nc1OC)c(-c1cc3c(Cl)c(F)cnc3[nH]1)cn2CCN1CCOCC1` [Example 8, 3-(4-chloro-5-fluoro-1H-pyrrolo[2,3-b]pyridin-2-yl)-5,6-dimethoxy-1-(2-morpholin-4-yl-ethyl)-1H-pyrrolo[3,2-b]pyridine] returned a melting point of 206 °C.

The values above are taken from patent publication US7786114B2, “Bis-azaindole derivatives, preparation and pharmaceutical use thereof as kinase inhibitors” (Aventis Pharma S.A., priority 2004, dated 2010).
